For one assay, the target named is T1, PKC-ε (Homo sapiens, UniProt Q02156).
T1 sequence (Q02156 1-737): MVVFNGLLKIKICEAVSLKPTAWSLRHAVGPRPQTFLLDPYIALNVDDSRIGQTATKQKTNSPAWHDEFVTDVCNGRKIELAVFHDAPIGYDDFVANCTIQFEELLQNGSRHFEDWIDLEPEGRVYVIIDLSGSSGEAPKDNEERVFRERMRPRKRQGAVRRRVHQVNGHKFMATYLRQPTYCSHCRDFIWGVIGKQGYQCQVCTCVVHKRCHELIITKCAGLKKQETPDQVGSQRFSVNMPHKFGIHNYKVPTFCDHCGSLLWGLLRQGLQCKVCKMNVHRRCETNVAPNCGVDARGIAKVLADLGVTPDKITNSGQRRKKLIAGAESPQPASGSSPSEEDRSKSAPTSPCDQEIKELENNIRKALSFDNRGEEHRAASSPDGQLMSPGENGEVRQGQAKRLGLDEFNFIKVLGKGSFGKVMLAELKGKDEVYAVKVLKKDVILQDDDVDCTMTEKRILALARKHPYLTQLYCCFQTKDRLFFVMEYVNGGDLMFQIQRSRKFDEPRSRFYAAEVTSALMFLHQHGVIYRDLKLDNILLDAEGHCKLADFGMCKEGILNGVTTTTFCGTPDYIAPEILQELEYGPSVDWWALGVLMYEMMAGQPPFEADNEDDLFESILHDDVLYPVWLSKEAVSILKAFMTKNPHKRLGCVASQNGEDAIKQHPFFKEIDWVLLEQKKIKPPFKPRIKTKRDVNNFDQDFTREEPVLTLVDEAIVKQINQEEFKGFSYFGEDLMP
Nature of the assay: PKC activation assay with purified PKC-ε isozyme (32P-phosphoprotein formation). In kind it is biochemical. Here is the method:
For measurement of PKC activation by DCPLA-ME, activation of recombinant PKC-α, PKC-ε, and PKC-δ was evaluated. DCPLA-ME induced activation was measured in the absence of diacylglycerol (DAG) and phosphatidylserine (PS) as described earlier. See Nelson, T. J. et al., J. Biol. Chem., 2009, 284: 34514-34521, and Kanno, T. et al., J. Cell Physiol., 2009, 221: 183-188. Individual enzymes were incubated for 15 min at 37° C. in the presence of 10 μM histones, 4.89 mM CaCl2, 10 mM MgCl2, 20 mM HEPES (pH 7.4), 0.8 mM EDTA, 4 mM EGTA, 4% glycerol, 8 μg/ml aprotinin, 8 μg/ml leupeptin, 2 mM benzamidine, and 0.5 μCi of [γ-^32P]ATP. Purified PKC-α, PKC-ε and PKC-δ were preincubated with DCPLA-ME for 5 min at room temperature. [^32P]-Phosphoprotein formation was measured by adsorption onto phosphocellulose.
To measure PKC, 10 μl of cell homogenate or purified PKC isozyme was incubated for 15 min at 37° C. in the presence of 10 μM histones, 4.89 mM CaCl2, 1.2 μg/μl phosphatidyl-L-serine, 0.18 μg/μl 1,2-dioctanoyl-sn-glycerol, 10 mM MgCl2, 20 mM HEPES (pH 7.4), 0.8 mM EDTA, 4 mM EGTA, 4% glycerol, 8 μg/ml aprotinin, 8 μg/ml leupeptin, and 2 mM benzamidine. [γ32P]ATP (0.5 μCi) was added and 32P-phosphoprotein formation was measured by adsorption onto phosphocellulose as described previously. See Nelson et al., J. Neurochemistry, 1995, 65: 2350-2357.
PKC activity of each compound was measured in the absence of diacylglycerol and phosphatidyl-L-serine and PKC-δ and PKC-ε were measured in the absence of added EGTA and CaCl2, as described by Kanno et al., J. Lipid Res., 2006, 47: 1146-1156. Low concentrations of Ca^2+ are needed because high Ca^2+ interacts with the PKC phosphatidylserine binding site and prevents activation. […] To determine their PKC isozyme specificity, the compounds were pre-incubated with purified isoforms of PKC for five minutes and the PKC activity was measured radiometrically.
The activation and PKC isozyme specificity of DCPLA-ethyl ester was measured following the procedures in Example 1(B) and (C), except that 9 ng of the purified isozyme was used and it was pre-incubated for 5 minutes at room temperature (FIG. 3). PKC-ε activation by DCPLA-tert-butyl ester and DCPLA-retinyl ester was measured in the same manner as DCPLA-ethyl ester (FIG. 3).
The EC50 values, PKC specificity, and activation for a select number of DCPLA esters was determined (see Table 1). EC50 values were determined by measuring the lowest concentration that activates by 50% of maximum activation. […] The specificity and activation of PKC by the various esters of DCPLA were determined from the measurements of activation of PKC isozymes.

The test system of the next assay is rat hippocampal neurons. Nature of the assay: Dendritic branching in seven day old rat hippocampal neurons (confocal microscopy). In kind it is cell-based. The conditions noted are these: 100 nM, 48 hr. Here is the method:
The effect of DCPLA-ME on development of primary neurons was investigated. Seven day old rat hippocampal neurons were treated with DCPLA-ME (100 nM) for 48 hr. Immunofluorescence and confocal microscopy-cells were grown in four chambered slides (Nunc, USA) at low density. For immunofluorescence staining the cells were washed with PBS (pH 7.4) and fixed with 4% paraformaldehyde for 4 min. Following fixation, cells were blocked and permeabilized with 5% serum and 0.3% Triton X-100 in 1×PBS for 30 min. Cells were washed 3× with 1×PBS and incubated with primary antibodies for 1 hr at 1:100 dilution. After the incubation slides were again washed 3× in 1×PBS and were incubated with the FITC anti-rabbit IgG and Rhodamine anti-mouse IgG for 1 hr at 1:400 dilution. Cells were further washed and mounted in Pro Long Gold antifade mounting solution (Invitrogen, USA). Stained cells were viewed under the LSM 710 Meta confocal microscope (Zeiss) at 350 nm, 490 nm and 540 nm excitation and 470 nm, 525 nm and 625 nm emission for DAPI, FITC and rhodamine respectively. Six individual fields at 20× or 63× oil lens magnification were analyzed for the mean fluorescence intensity (MFI) in each channel. The colocalization correlation was generated by the ZEN software (Zeiss).

As to `CCCCCC1CC1CC1CC1CCCCCCCC(=O)OC` (stereo not shown) [DCPLA-ME, DCPLA methyl ester], on PKC-ε (% of control of PKCε at maximum), the maximal response (Emax) was 195%. Moreover, the “Specificity ε/α” value at PKC-ε (Activation of PKC-ε ÷ activation or inhibition of PKCα at 3xEC50) came out at 12.1. Further, the “PKC isozyme specificity” value at PKC-ε (PKC-ε vs PKC-α and PKC-δ) is recorded as “relatively specific for PKC-ε”. Also, the PKC-ε activation entry at PKC-ε (in a range of 0.01-10 μM) is reported as “more than 50%”. On PKC-ε (lowest concentration that activates by 50% of maximum activation), this molecule showed an EC50 of 3 nM. Further, the “PKC-ε activation at its peak” value at PKC-ε (maximum, FIG. 1, 2, 4) is listed as “up to 190 % of control”. Further, the Synaptophysin staining result with rat hippocampal neurons is reported as “increased”.

The record behind these values is US9163032B2, “Esters of DCPLA and methods of treatment using the same” (Blanchette Rockefeller Neurosciences Institute, priority 2011, dated 2015).
